Source: patent publication US7217730B2, “Method for the use of pyranoindole derivatives to treat infection with Hepatitis C virus” (Wyeth, priority 2002, dated 2007)

Target: T1, NS5B from the BK strain (genotype 1b) (Hepatitis C virus genotype 1b, UniProt P26663)
T1 construct: NS5B from the BK strain (genotype 1b) is expressed in E. coli as a protein in which the 21 C-terminal amino acids are replaced; made in house; host or cells: E. coli
Assay: Hepatitis C polymerase inhibition, NS5B BK strain, 33P-GTP filter assay
Type: biochemical
Details: Table 1A; for inhibition at 20 µM: 20 μM compound, read-out: HCV pol % inh at 20 μM; for IC50: NS5B BK strain, read-out: HCV pol BK IC50
Excerpt: The ability of the compounds of the present invention to inhibit Hepatitis C Polymerase was established by the following experimental procedure: • NS5B from the BK strain (genotype 1b) is expressed in E. coli as a protein in which the 21 C-terminal amino acids are replaced with a short linker and a hexahistidine tag ([…]). The purified protein is mixed with radioactive nucleotides and allowed to replicate a heteropolymeric RNA substrate, primed by an endogenous short hairpin, resulting in an approximately 760 nt product. The radioactive product is captured on a filter and quantitated after removal of the unincorporated nucleotides.
Reagents: • 10 mM uridine 5′-triphosphate (UTP) (Promega # p116B) • 10 mM adenine 5′-triphosphate (ATP) (Promega # p113B) • 10 mM cytidine 5′-triphosphate (CTP) (Promega # p114B) • 10 mM guanine 5′-triphosphate (GTP) (Promega # p115B) • Bovine Serum Albumin (BSA) 10 mg/ml NEB (100× at 10 mg/ml) #007-BSA • RNasein (Promega #N251X) 40 U/μl • A-[33P]-GTP (NEN-easytides NEG/606H 3000 Ci/mmol, 370 MBq/ml, 10 mCi/ml) • Falcon polypropylene 96 well plates (Becton Dickinson # 351190) • Millipore Multiscreen assasy system-96 well-filtration plate #MADE NOB 50 • Optiphase Supermix (Wallac) formulated by Fisher • Millipore Multiscreen liner for use in microbeta 1450-106 casette [(Wallac) Perkin Elmer #1450-433] • 1 M(N-[2-hydroxyethyl]piperazine-N′-[2-ethanesulfonic acid]) (HEPES), pH 7.3 • Amersham Pharmacia Biotec (US16924-500 ml) • 1 M MgCl2 (SIGMA #M1028) • Dithiothreitol (DTT) (solid) (SIGMA #D9779) • RNase free water (GIBCO-BRL #10977-023) • Dimethyl sulfoxide (Aldrich #27685-5) • Basilen Blue (Sigma, B5520) • 0.5M ethylenediaminetetraacetic acid (EDTA), pH 8 (GIBCO-BRL #15575-020) • Dibasic sodium phosphate (7-hydrate) (Na2HPO4.7H2O; Baker#3824-07) • Phosphoric acid (Baker, #0262.02)
Further reagent preparation: • 0.5 M Na Phosphate buffer. Per liter, weigh 134 gr Na2HPO4.7H2O, add water to 900 ml. Adjust pH to 7.0 with phosphoric acid. Top off with water to 1 L. • Dilute nucleotides 1:1000 to 10 μM (GTP and CTP) or 1:100 to 100 μM (ATP and UTP) into RNase free water.
Procedure: • (1) Compounds 10 μl at 10 μg/ml in 15% dimethylsulfoxide (DMSO)
When starting from 100 μg/ml compound stock in […]: • Dispense 5 μl 30% DMSO per well • Dispense 5 μl compound (100 μg/ml) per well.
When starting from 50 μg/ml compound stock in 15% DMSO: • Add 10 μl compound per well. • (2) Enzyme Mix:
Add 20 μl enzyme mix into each well of the assay plate. Incubate compound and enzyme at room temperature for 15 minutes • (3) Template mix—prepare ahead
Spin down a tube of RNA (5 μg/tube stored in 75% ethanol and 0.3 M sodium acetate) in a microcentrifuge for 20 minutes at 4° C. One tube is enough for 1–1.5 plates. Remove as much ethanol from the tube as possible by inverting the tube. Be gentle, pellet RNA may not adhere to the tube. Vacuum dry the RNA. Resuspend the RNA by adding 1 ml of DEPC water, close the cap of the tube tightly. To dissolve RNA, incubate RNA solution on ice for ˜60 minutes and gently vortex. Spin briefly to ensure all RNA solution is down to the bottom of the tube before opening cap. Gently transfer RNA solution into a 5 ml or larger tube. Add another 3 ml of DEPC water (total 4 ml of volume).
Add the following volumes of reagents
Add 20 μl template mix per reaction (i.e. 20 ng of pOF per reaction or ˜3 nM) • (4) Incubate reaction at room temperature (22–25° C.) for 2 hours. • (5) Stop reaction by adding 50 μl of 170 mM EDTA. • Final concentration of EDTA is 85 mM. • (6) Prewet filters of Millipore multiscreen assay plate by adding 200 μl of 0.5 M sodium phosphate buffer, pH 7.0 into each well. Let stand at room temperature for 2–3 minutes. • (7) Place the multiscreen filter plate onto a Millipore Manifold and turn on vacuum to allow buffer to flow through. Turn off vacuum. Transfer 80 μl of the reaction product into each well of the filter plate. Let stand for 2–3 minutes. […]

T1 sequence (P26663 2420-2989): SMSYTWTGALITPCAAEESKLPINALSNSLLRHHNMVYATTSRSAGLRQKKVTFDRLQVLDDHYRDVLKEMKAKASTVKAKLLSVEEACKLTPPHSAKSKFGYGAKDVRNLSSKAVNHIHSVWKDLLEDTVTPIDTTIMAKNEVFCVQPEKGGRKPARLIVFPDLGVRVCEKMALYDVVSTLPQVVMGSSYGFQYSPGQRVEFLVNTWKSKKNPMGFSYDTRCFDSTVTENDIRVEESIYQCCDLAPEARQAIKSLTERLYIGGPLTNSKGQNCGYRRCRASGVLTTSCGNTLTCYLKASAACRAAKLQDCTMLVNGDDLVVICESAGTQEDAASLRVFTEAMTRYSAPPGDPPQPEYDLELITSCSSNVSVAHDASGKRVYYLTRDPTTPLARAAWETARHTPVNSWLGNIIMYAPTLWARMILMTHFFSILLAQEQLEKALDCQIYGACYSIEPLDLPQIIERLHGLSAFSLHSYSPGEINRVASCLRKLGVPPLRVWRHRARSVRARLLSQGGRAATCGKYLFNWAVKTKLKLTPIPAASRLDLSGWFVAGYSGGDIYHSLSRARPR

With `CCCC1(CC(=O)O)OCCc2c1[nH]c1c(-c3ccccc3)cccc21` (stereo not shown) [Example 89, (8-phenyl-1-propyl-1,3,4,9-tetrahydropyrano[3,4-b]indol-1-yl)acetic acid] the inhibition at 20 µM was 36% and the IC50 was > 20 µM.
With `CCC1(CC(=O)O)OCCc2c1[nH]c1c(F)cc(F)c(C#N)c21` (stereo not shown) [Example 194, (5-cyano-1-ethyl-6,8-difluoro-1,3,4,9-tetrahydropyrano[3,4-b]indol-1-yl)acetic acid] the inhibition at 20 µM was 50% and the IC50 was > 5 µM.
`CCC1(CC(=O)O)OCCc2c1[nH]c1cccc(Cl)c21` (stereo not shown) [Example 13, (5-Chloro-1-ethyl-1,3,4,9-tetrahydropyrano[3,4-b]indol-1-yl)acetic acid] was tested, and the inhibition at 20 µM was 23% and the IC50 was > 20 µM.
`C/C=C/CCC1(CC(=O)O)OCCc2c1[nH]c1c(C(F)(F)F)cccc21` (stereo not shown) [Example 120, [1-[(3E)-pent-3-enyl]-8-(trifluoromethyl)-1,3,4,9-tetrahydropyrano[3,4-b]indol-1-yl]acetic acid] was tested, and the inhibition at 20 µM was 33% and the IC50 was > 20 µM.
In the case of `O=C(O)CC1(c2cccc([N+](=O)[O-])c2)OCCc2c1[nH]c1cccc(Br)c21` (stereo not shown) [Example 29, [5-bromo-1-(3-nitrophenyl)-1,3,4,9-tetrahydropyrano[3,4-b]indol-1-yl]acetic acid], the inhibition at 20 µM is reported as < 5% and the IC50 is reported as > 20 µM.
In the case of `O=C(O)CC1(c2ccoc2)OCCc2c1[nH]c1c(Cl)ccc(C(F)(F)F)c21` (stereo not shown) [Example 136, [8-chloro-1-(3-furyl)-5-(trifluoromethyl)-1,3,4,9-tetrahydropyrano[3,4-b]indol-1-yl]acetic acid], the inhibition at 20 µM is reported as 81% and the IC50 is reported as 4.3 µM.
For `CCCC1(CC(=O)O)OCCc2c1[nH]c1cccc(-c3ccc(F)cc3)c21` (stereo not shown) [Example 48, [5-(4-fluorophenyl)-1-propyl-1,3,4,9-tetrahydropyrano[3,4-b]indol-1-yl]acetic acid], the inhibition at 20 µM was 18% and the IC50 was > 20 µM.
For `CC(C)C1(CC(=O)O)OCCc2c1[nH]c1c(F)cc(F)c(C#N)c21` (stereo not shown) [Example 198, (5-cyano-6,8-difluoro-1-isopropyl-1,3,4,9-tetrahydropyrano[3,4-b]indol-1-yl)acetic acid], the inhibition at 20 µM was 82% and the IC50 was > 5 µM.
For `O=C(O)CC1(c2ccccc2)OCCc2c1[nH]c1c(Br)cccc21` (stereo not shown) [Example 86, (8-bromo-1-phenyl-1,3,4,9-tetrahydropyrano[3,4-b]indol-1-yl)acetic acid], the inhibition at 20 µM was 20% and the IC50 was > 20 µM.
`CCCC1(CC(=O)O)OCCc2c1[nH]c1c(Cl)cccc21` (stereo not shown) [Example 74, (8-chloro-1-propyl-1,3,4,9-tetrahydropyrano[3,4-b]indol-1-yl)acetic acid] was tested, and the inhibition at 20 µM was 69% and the IC50 was 17.9 µM.
In the case of `O=C(O)CC1(c2ccccc2)OCCc2c1[nH]c1c(Cl)ccc(Cl)c21` (stereo not shown) [Example 52, (5,8-dichloro-1-phenyl-1,3,4,9-tetrahydropyrano[3,4-b]indol-1-yl)acetic acid], the inhibition at 20 µM is reported as 11% and the IC50 is reported as > 20 µM.
Work on `Cc1cc(F)c(C#N)c2c3c([nH]c12)C(CC(=O)O)(c1ccc(C(=O)O)cc1)OCC3` (stereo not shown) [Example 209, 4-[1-(carboxymethyl)-5-cyano-6-fluoro-8-methyl-1,3,4,9-tetrahydropyrano[3,4-b]indol-1-yl]benzoic acid] yielded an inhibition at 20 µM of 63% and an IC50 of 17.9 µM.
`CCCC1(CC(=O)O)OCCc2c1[nH]c1c(C)ccc(F)c21` (stereo not shown) [Example 141, (5-fluoro-8-methyl-1-propyl-1,3,4,9-tetrahydropyrano[3,4-b]indol-1-yl)acetic acid] gave an inhibition at 20 µM of 79% and an IC50 of 1.4 µM.
Compound `CCCCC1(CC(=O)O)OCCc2c1[nH]c1c(Cl)ccc(C(F)(F)F)c21` (stereo not shown) [Example 133, [1-butyl-8-chloro-5-(trifluoromethyl)-1,3,4,9-tetrahydropyrano[3,4-b]indol-1-yl]acetic acid] has an inhibition at 20 µM of 88% and an IC50 of 0.7 µM.
`O=C(O)CC1(c2ccoc2)OCCc2c1[nH]c1c(Cl)cc(Cl)c(Cl)c21` (stereo not shown) [Example 162, [5,6,8-trichloro-1-(3-furyl)-1,3,4,9-tetrahydropyrano[3,4-b]indol-1-yl]acetic acid] gave an inhibition at 20 µM of 73% and an IC50 of 2.4 µM.
`CCCC1(CC(=O)O)OCCc2c1[nH]c1cccc(-c3ccc(Cl)cc3)c21` (stereo not shown) [Example 34, (5-(4-chlorophenyl)-1-propyl-1,3,4,9-tetrahydropyrano[3,4-b]indol-1-yl]acetic acid] was tested, and the inhibition at 20 µM was 5% and the IC50 was > 20 µM.
With `N#Cc1cccc2[nH]c3c(c12)CCOC3(CC(=O)O)c1ccoc1` (stereo not shown) [Example 61, [5-cyano-1-(3-furyl)-1,3,4,9-tetrahydropyrano[3,4-b]indol-1-yl]acetic acid] the inhibition at 20 µM was 18% and the IC50 was > 20 µM.
`CCCC1(CC(=O)O)OCCc2c1[nH]c1c(Cl)cc(C)c(C#N)c21` (stereo not shown) [Example 183, (8-chloro-5-cyano-6-methyl-1-propyl-1,3,4,9-tetrahydropyrano[3,4-b]indol-1-yl)acetic acid] was tested, and the inhibition at 20 µM was 88% and the IC50 was 0.59 µM.
`O=C(O)CC1(c2ccoc2)OCCc2c1[nH]c1c(Br)cccc21` (stereo not shown) [Example 88, [8-bromo-1-(3-furyl)-1,3,4,9-tetrahydropyrano[3,4-b]indol-1-yl]acetic acid] was tested, and the inhibition at 20 µM was 30% and the IC50 was > 20 µM.
For “(4-cyclobutyl-5,8-dichloro-1-propyl-1,3,4,9-tetrahydropyrano[3,4-b]indol-1-yl)acetic acid [Example 231]”, the IC50 was 7.2 µM.
`CCCC1(CC(=O)O)OC(C)Cc2c1[nH]c1c(F)ccc(C#N)c21` (stereo not shown) [Example 228, (5-cyano-8-fluoro-3-methyl-1-propyl-1,3,4,9-tetrahydropyrano[3,4-b]indol-1-yl)acetic acid] gave an IC50 of 8.9 µM.
For `CCC1(CC(=O)O)OCCc2c1[nH]c1c(C)cc(F)c(Br)c21` (stereo not shown) [Example 200, (5-bromo-1-ethyl-6-fluoro-8-methyl-1,3,4,9-tetrahydropyrano[3,4-b]indol-1-yl)acetic acid], the inhibition at 20 µM was 83% and the IC50 was 2.1 µM.
`CCCCC1(CC(=O)O)OCCc2c1[nH]c1c(F)cc(C)c(C#N)c21` (stereo not shown) [Example 170, (1-butyl-5-cyano-8-fluoro-6-methyl-1,3,4,9-tetrahydropyrano[3,4-b]indol-1-yl)acetic acid] was tested, and the inhibition at 20 µM was 53% and the IC50 was 1 µM.
In the case of `CC1(CC(=O)O)OCCc2c1[nH]c1c(Br)cccc21` (stereo not shown) [Example 80, (8-bromo-1-methyl-1,3,4,9-tetrahydropyrano[3,4-b]indol-1-yl)acetic acid], the inhibition at 20 µM is reported as 35% and the IC50 is reported as > 20 µM.
Compound `CCC1(CC(=O)O)OCCc2c1[nH]c1c(Cl)ccc(C(F)(F)F)c21` (stereo not shown) [Example 130, [8-chloro-1-ethyl-5-(trifluoromethyl)-1,3,4,9-tetrahydropyrano[3,4-b]indol-1-yl]acetic acid] has an inhibition at 20 µM of 77% and an IC50 of 5.5 µM.
`CCCC1(CC(=O)O)OCCc2c1[nH]c1c(C)ccc(C#N)c21` (stereo not shown) [Example 1, (5-cyano-8-methyl-1-propyl-1,3,4,9-tetrahydro-pyrano[3,4-b]indol-1-yl)acetic acid] gave an IC50 of 0.5 µM.
